This is an account of results in patent US9598396B2, “Tetrahydrophenanthridinones and tetrahydrocyclopentaquinolinones as PARP and tubulin polymerization inhibitors” (Janssen Pharmaceutica NV, priority 2008, dated 2017).

Assay [1] has as its system Human colon carcinoma HCT116 cells. The assay is described as follows: Detection of antiproliferative activity (Alamar Blue assay). It is filed as cell-based. The note with it: HCT-116, 96 h, 4-day incubation, read-out: Cellular assay HCT116 pIC50 (converted). The method, then:
Example C.4 Detection of Antiproliferative Activity
Human colon carcinoma HCT116 cells obtained from the ATCC were cultured in McCoy's 5A medium supplemented with 2 mM L-Glutamine, 50 μg/ml gentamicin and 10% heat inactivated fetal calf serum.
Reagents used in the Alamar Blue Assay
Resazurin was purchased from Aldrich (Prod. No. 199303). Potassium ferrocyanide, potassium ferricyanide, KH2PO4 and K2HPO4 were purchased from Sigma (Prod. Nos. P9387, P8131, P5655 and P8281, respectively).
Potassium Phosphate Buffer 0.1 M (PPB) was made as follows: 2.72 gram KH2PO4 and 13.86 gram K2HPO4 were dissolved in 500 ml milli-Q H2O, the pH was adjusted to pH 7.4 and the volume was brought to 1 liter with milli-Q H2O; the buffer was filter sterilised and stored at room temperature. Resazurin stock solution (PPB-A) was prepared fresh by dissolving 45 mg resazurin in 15 ml PBS. 30 mM potassium ferricyanide (PPB-B) was prepared by dissolving 0.987 gram potassium ferricyanide in 100 ml PPB. 30 mM potassium ferrocyanide (PPB-C) was prepared by dissolving 1.266 gram potassium ferrocyanide in 100 ml PPB.
Mixture of PPB-A, PPB-B and PPB-C was prepared by mixing equal volumes of the respective solutions. Resazurin work solution (herein termed “Alamar Blue” solution) was prepared by diluting said mixture 20× (vol/vol) in PPB and filter sterilising; the Alamar Blue solution could be kept at 4° C. for a maximum of 2 weeks.
Procedure of the Alamar Blue Assay
For experiments in 384 wells plates the cells were seeded at a density of 4.5×10^3 cells/ml in Falcon 384-well culture plates (Life Technologies, Merelbeke, Belgium), black with clear bottom, in 45 μl culture medium. Cells were allowed to adhere to plastic for 24 hours. The tested compound was pre-diluted (1/50 in culture medium) and 5 μl pre-diluted compound was added to the wells. Following 4-day incubation, 10 μl of the Alamar Blue solution was added to each well and the cells were further incubated for 4 hours (HCT116) or 24 hours (PC-3) at 37° C. The fluorescence intensity was measured for each well on a Fluorescence plate reader (Fluorskan, Labsystems, 540 nm excitation and 590 nm emission)
The antiproliferative activity was calculated as percentage of remaining viable cells in treated versus control (untreated cells) conditions. Within an experiment, the result for each experimental condition is the mean of 3 replicate wells. When appropriate, the experiments were repeated to establish full concentration-response curves. […] Herein the effects of tested compounds are expressed as pIC50 (the negative log value of the IC50 value) (see Table 3).

In assay [2] the test system is tubulin. The assay is described as follows: Tubulin polymerization assay. The note with it: inhibition of polymerization at 20 μM and 5 μM. It is filed as biochemical. The method, then: Example C.5 Polymerization Assay
The tubulin polymerization assay is an adaptation of an assay originally described by Bonne, D. et al. (J. Biol. Chem., 1985, 260:2819-25). The assay kit was purchased from Cytoskeleton, Inc. (catalogue number BK011) and the assay was performed as described by the supplier with the following modifications. The assay was run in a 384-well black Proxiplate (Perkin Elmer) and volumes were adapted accordingly. The reactions were carried out in a final volume of 10 μl. Compounds were added to 25 μl of the reaction mix in 96-well PP plates (Corning) on ice and 10 μl of this mixture was dispensed into duplicates of the 384-well Proxiplates pre-warmed to 37° C. in a Fluoroskan Ascent plate reader (Thermo Scientific). Fluorescence measurements were taken every minute for one hour. The maximum slope of each well was determined (linear regression through 4 consecutive points) and polymerization was calculated as a percentage of polymerization observed in the absence of compound.

Assay [3] relates to human prostate cancer PC3 cells. As to the kind of experiment: Eb1 Comet (microtubule disruption) assay. Type of assay: cell-based. The note with it: 1 hour treatment, LAC = concentration where Eb1 foci absent in at least 50% of treated cells. From the text: Example C.6 Eb1 Comet (Microtubule Disruption) Assay
The Eb1 Comet assay relies on the detection of the Eb1 protein at the plus end of polymerizing microtubules (Mimori-Kiyosue, 2000) using indirect immunofluorescence. Disruption of microtubule dynamics through de-polymerization or stabilization results in a de-localization of Eb1 from the growing microtubule ends and this is visualized by the disappearance of Eb1 containing cytoplasmic foci.
Briefly, human prostate cancer PC3 cells obtained from the American Type Culture Collection were grown in 96-well plates (Greiner, cat. no. 655090) in HAM's F12 medium as recommended by the provider (ATCC). The cells were treated for 1 hour at 37° C. with compounds dissolved in DMSO (0.6% final DMSO concentration). The culture medium was then removed by aspiration and the cells were fixed by adding cold methanol (−20 C). After a 15 minutes incubation at −20° C., the cells were washed twice with DPBS (Gibco) containing 0.5% Triton X-100. Mouse Eb1 antibody (BD Transduction Laboratories, cat. no. 610534) was added to the cells (1/250 dilution in DPBS containing 1% BSA) and incubated overnight at room temperature. The antibody was subsequently removed and the cells washed twice with DPBS, 0.5% Triton X-100. Secondary goat anti-mouse antibody conjugated to Alexa 488 fluorescent dye (Molecular Probes) was added at a 1/500 dilution in DPBS, 1% BSA and incubated for 1 hour at 37° C. The cells were washed twice with DPBS, 0.5% Triton X-100 and then DPBS containing 0.5% Triton X-100 and 1/5000 Hoechst 33342 (Molecular Probes) was added. Microscopy based Eb1 foci visualization was carried out using an IN Cell Analyser 1000 (Amersham Biosciences) using a 20× objective. Compound dependent microtubule disruption was visually determined by the disappearance in Eb1 foci. The lowest active concentration (LAC) was determined as the concentration where Eb1 foci were absent in at least 50% of the treated cells. Herein the effects of tested compounds are expressed as pLAC (the negative log value of the LAC value) (see Table 3).

Regarding `CC(C#N)(Cc1ccccc1)c1ccc2c3c(c(=O)[nH]c2c1)CCCC3` (centres unmarked) [Co. No. 1], in assay [1], the IC50 is 355 nM. In addition, in assay [2], the “Assay Tubulin Polymerization score” value was 2.

On to `CC(C#N)(Cc1cccc(F)c1)c1ccc2c3c(c(=O)[nH]c2c1)CCCC3` (centres unmarked) [Co. No. 5], for which, in assay [1], the IC50 was 282 nM. Moreover, the “Cellular assay Eb1 pLAC” value in assay [3] was 7. In assay [2], the “Assay Tubulin Polymerization score” value came to 2.

`CC(C#N)(CCOc1ccc(C#N)cc1)c1ccc2c3c(c(=O)[nH]c2c1)CCCC3` (centres unmarked) [Co. No. 17]: in assay [1], the IC50 is 204 nM. For the same compound, the “Assay Tubulin Polymerization score” value in assay [2] is 2.

Regarding `CC(C#N)(Cc1cccc(Cl)c1)c1ccc2c3c(c(=O)[nH]c2c1)CCCC3` (centres unmarked) [Co. No. 8], the IC50 in assay [1] is 155 nM. Besides, the “Assay Tubulin Polymerization score” value in assay [2] is listed as 2.

Take `CC(C#N)(Cc1cccc(C#N)n1)c1ccc2c3c(c(=O)[nH]c2c1)CCCC3` (centres unmarked) [Co. No. 7]: the IC50 in assay [1] is 58.9 nM. For the same compound, the “Cellular assay Eb1 pLAC” value in assay [3] is 7.5. In assay [2], the “Assay Tubulin Polymerization score” value is 3 (a compound showing more than 50% inhibition at 5 μM is reported as score 3).

For the compound `CC(C#N)(Cc1cccc(C#N)c1)c1ccc2c3c(c(=O)[nH]c2c1)CCCC3` (centres unmarked) [Co. No. 4], the IC50 in assay [1] is 148 nM. Moreover, the “Assay Tubulin Polymerization score” value in assay [2] is listed as 2.
